Results from US5358964A, “Benzylidene-lactone and their thiocarbonyl analogs as inhibitors of proteoglycan degradation” (Warner-Lambert Company, priority 1993, dated 1994).

Tested on: IL-1-induced proteoglycan degradation in bovine nasal cartilage
Assay: Bovine Nasal Cartilage (BNC) assay: inhibition of IL-1-induced proteoglycan degradation (chondroitin sulfate release, 1,9-DMB)
Assay type: cell-based
Settings: Bos taurus, bovine nasal cartilage explants, IL-1β (500 U); for IC50: 48 h with compound + 24 h fresh media, dose responses 10, 1, 0.1 μM
Description: The BNC (bovine nasal cartilage) assay provides a model for evaluating chrondroprotective compounds that block cartilage degradation through inhibition of enzyme activity or by altering the gene expression of the matrix metalloproteinase stromelysin.
Bovine nasal cartilage is obtained from a local slaughter house (Milan, Mich.); cell culture reagents from Gibco (Grand Island, N.Y.); human recombinant Interleukin-1β (IL-1β) from Boehringer Mannheim (Indianapolis, Ind.); DMB from Polysciences (Warrington, Pa.); Falcon 24 well flat-bottom tissue culture plates from Becton Dickinson (Lincoln Park, N.J.); disposable 20-mL scintillation vials from Kimble Glass (Vinland, N.J.); Papain from Sigma (P-3125, St. Louis, Miss.); high purity dimethyl sulfoxide from Burdic & Jackson (081-1, Distributed by Baxter Healthcare, McGraw Park, Ill.); Sarstedt vials for radioimmune assays (Sarstedt, Newton, N.C.); Sarstedt 96-vial aluminum racks (Sarstedt, Newton, N. C.); Cetus Pro/Pette (Perkin Elmer, Norwalk, Conn.).
The assay is accomplished in two phases. The cartilage plugs are first incubated with IL-1 in the presence of compounds. The amount of proteoglycan released is then quantified by measuring chondroitin sulfate present in the media using the 1,9-Dimethylmethylene Blue Assay.
Cartilage Culture. Bovine nasal septum is dissected free of surrounding tissue and wiped with 70% alcohol. A sterile cork borer is used to remove 5-mm cartilage disks of 2 to 3 mm thickness. Explants are equilibrated for 96 hours in F-12 supplemented with 10% fetal calf serum (FCS) and antibiotics at 37° C. in a humidified atmosphere of 95% air and 5% CO2. Explants are then rinsed with 1 mL F-12 Nutrient Mixture (without phenol red) in order to remove traces of FCS. Each treatment group is done in triplicate allowing: controls (500 μL F-12 medium + 110 μL PBS with 0.1% BSA + 7 μL DMSO); IL-1β (500 μL F-12 medium without phenol red + 100 μL IL-1β (500 U) + 7 μL DMSO + 10 μL PBS with 0.1 % BSA); and dose responses (10, 1, and 0.1 μM) (F-12 medium without phenol red + 100 μL IL-1β (500 U) + 7 μL compound dissolved in DMSO + 10 μL PBS with 0.1% BSA), to be tested per each 24-well plate. The cartilage plugs are incubated in the presence of conditioned media (IL-1β + compound) for 48 hours. […]
Quantitation of Cartilage Degradation. The ability of a compound to inhibit proteoglycan released from the cartilage plugs is quantified by measuring chondroitin sulfate. […] This color change is measured using a Titertek Multiscan MCC 340 plate reader at 540 nm. […] It is necessary to dilute (1:5, 1:10) the medium before a […] is performed by adding 10 μL of collected media to 290 μL DMF (16 mg dye/1 L of 0.1M formate buffer, pH 3.5, containing 5 mL ethanol) and reading […]. […]

Row | SMILES | IC50 | also measured
1 | O=C1OCC/C1=C\c1ccccc1Nc1cccc(C(F)(F)F)c1 [Example 3, (E)-4,5-Dihydro-3-[[2-[[3-(trifluoromethyl)phenyl]-amino]phenyl]methylene]-2(3H)-furanone] | 520 nM | 
2 | O=C1OCC/C1=C\c1ccccc1Nc1ccccc1 [Example 4, (E)-4,5-Dihydro-3-[[2-(phenylamino)phenyl]methylene]2(3H) -furanone] |  | inhibition at 0.1 µM (@ 0.10 μM, read-out: Percent Inhibition @ μM): 70%
3 | Cc1ccc(Cl)c(Nc2ccccc2/C=C2\CCOC2=S)c1Cl [Example 2, (E)-3-[[2-[(2,6-Dichloro-3-methylphenyl)amino]phenyl]methylene]-4,5-dihydro-2(3H) -furanthione] |  | inhibition at 10 µM (@ 10.0 μM, read-out: Percent Inhibition @ μM): > 50%
4 | Cc1ccc(Cl)c(Nc2ccccc2/C=C2\CCOC2=O)c1Cl [Example 1, (E)-3-[[2-[(2,6-Dichloro-3-methylphenyl)amino]phenyl]methylene]4,5-dihydro-2(3H)-furanone] | 390 nM | 
